Like-named read-outs stand apart in the source and are kept apart here. No end group written: not given here.
Experiments:
[1] = FIG. 22C
Text: Table printed on a drawing sheet, FIG. 22C
First reader's note: Per the description this is an in vitro permeability assay in Caco-2 cells; Boc-FcQ and Boc-FcN are Boc-protected dipeptide cyclic imides (cyclimids).

[2] = test system: IKZF1; assay: Global quantitative proteomics of MM.1S cells; format: cell-based, human (Homo sapiens); conditions: 10 μM, 10 h
Description: Global proteomics samples were prepared in biological triplicate for each condition. 1.5×10^6 HEK293T or MM.1S cells were seeded in 6-well plates and incubated at 37° C., 5% CO2 for 30 min. Small molecules of interested were then added, and cells were incubated at 37° C., 5% CO2 for the indicated time. […] After protein quantification by BCA protein assay, the lysates were diluted to 1 mg/mL with the lysis buffer. The diluted lysates (100 μL) were reduced by addition of dithiothreitol (20 mM) at 24° C. for 30 min then alkylated by addition of iodoacetamide (40 mM) and incubation in the dark at 24° C. for 30 min.
S-Trap buffer (90% methanol, 0.1 M TEAB, pH 7.1, 900 μL) was then added. Each sample was transferred to a S-Trap micro column. Using a vacuum manifold, the columns were washed with S-Trap buffer (3×150 μL). […] The digested peptides were eluted by sequential addition of 50 mM TEAB pH 8.0 (40 μL), ddH2O (40 μL) and 0.2% formic acid, 50% acetonitrile/water (35 μL), with each elution collected by centrifugation (4,000× g, 24° C., 1 min) in a clean Eppendorf tube. The eluted samples were concentrated to dryness in a vacufuge and resuspended in 45 or 80 μL ddH2O for 9 or 16 samples, respectively. For each resuspended sample, 5 μL was taken for labeling with TMT reagent (2 μL) at 24° C. for 1 h such that the combined total protein was 100 μg. […] The TMT-labeled samples were combined and dried in a vacufuge. The dried sample was resuspended in 300 μL 0.1% trifluoroacetic acid (TFA) and fractionated to 20 fractions using a Pierce high pH reversed-phase peptide fractionation kit. […] The first fraction (4% acetonitrile/0.1% TEA) was excluded from LC-MS/MS analysis. The other fractions were concentrated to dryness and each sample was resuspended in 20 μL of 0.1% formic acid prior to LC-MS/MS analysis. […]
Analysis was performed in Thermo Scientific Proteome Discoverer version 2.4.1.15. […] The TMT reporter ions were quantified using the Reporter Ions Quantifier node and normalized such that the summed peptide intensity per channel was equal. […]

[3] = test system: MM.1S cells; assay: Cell viability (MTT) assay; format: cell-based; conditions: Homo sapiens, MM1.S, 120 h, 5 d, read-out: IC50 (anti-proliferative effect)
Description: 2.0×10^4 MM.1S cells were seeded in each well of a 96-well plate containing 100 μL RPMI160 media supplemented with 10% FBS and 1× penicillin-streptomycin. The compound of interest was added to each well to a final concentration of 10 nM-100 μM from 100× stock solutions in 4% DMSO/PBS (1 μL). Samples were incubated at 37° C., 5% CO2 for 5 days. Each well was treated with 3-(4,5-Dimethylthiazol-2-yl)-2,5-diphenyltetrazolium (MTT, 4 mg/mL, 10 μL), and the treated plate was incubated at 37° C., 5% CO2 for 3 h. The formazan crystals were solubilized by the addition of 100 μL of 10% SDS, 0.01 M HCl per well, and the plate was allowed to incubate at 37° C. overnight. The absorbance at 570 nm was measured to quantify the formazan generated in each well. The blank was defined by wells containing media and MTT reagent without any cells. For each treatment well, the cell viability was calculated by subtracting the blank value and normalizing to the average absorbance of the vehicle control wells (cells treated with 4% DMSO/PBS).

[4] = molecular target: CRBN/DDB1 in the presence of BD2 domain of BRD4 (Homo sapiens, UniProt O60885+Q96SW2); assay: biochemical
CRBN/DDB1 in the presence of BD2 domain of BRD4, sequence (Q96SW2 whole entry, looked up, other chains not shown, the tested form may be a part): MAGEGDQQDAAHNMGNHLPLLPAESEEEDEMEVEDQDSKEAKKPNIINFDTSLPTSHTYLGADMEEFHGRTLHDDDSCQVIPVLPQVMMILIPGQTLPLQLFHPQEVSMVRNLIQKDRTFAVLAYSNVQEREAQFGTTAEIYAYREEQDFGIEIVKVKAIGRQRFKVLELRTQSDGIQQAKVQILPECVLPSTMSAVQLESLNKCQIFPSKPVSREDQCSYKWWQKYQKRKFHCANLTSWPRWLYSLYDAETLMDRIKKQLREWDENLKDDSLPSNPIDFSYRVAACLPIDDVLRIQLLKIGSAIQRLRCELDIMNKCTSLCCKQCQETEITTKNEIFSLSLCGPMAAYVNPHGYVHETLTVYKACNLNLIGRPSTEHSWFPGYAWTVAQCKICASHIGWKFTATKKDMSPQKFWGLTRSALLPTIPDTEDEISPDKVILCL

[5] = molecular target: T1, BRD4 with FLAG-CRBN (Homo sapiens, UniProt O60885+Q96SW2); assay: In vitro FLAG-tag co-immunoprecipitation in HEK-CRBN lysates; format: binding; conditions: 1 μM, 2 h
Description: For in vitro FLAG-tag co-immunoprecipitation, 5.0×10^6 HEK-CRBN cells were collected by centrifugation, lysed in 1× protease/phosphatase inhibitor/1× non-denaturing lysis buffer (400 μL), and cleared by centrifugation (21,000×g, 4° C., 10 min). The soluble portion of the lysate was collected and 200 μL of lysate was incubated with compound of interest at 4° C. for 2 h. […] The magnetic beads were washed with 1× non-denaturing lysis buffer (5×500 μL). The enriched proteins were eluted by the addition of 40 μL of 2× SDS-PAGE loading buffer and heated at 95° C. for 5 min prior to Western blot analysis.

[6] = test system: GST-BRD4 and His-CRBN/DDB1; assay: AlphaScreen for ternary complex formation; format: binding; conditions: recombinant GST-BRD4 and His-CRBN/DDB1
Description: AlphaScreen buffer (3× stock solution: 150 mM HEPES pH 7.4, 600 mM NaCl, 0.3% w/v BSA, 3 mM TCEP) was prepared fresh for each experiment. A 3× stock solution of each compound (60 μM, 3% DMSO final/1× AlphaScreen buffer) and a series of 2-fold serial dilutions, in 3% DMSO/1× AlphaScreen buffer, were prepared fresh for each experiment. A solution of 750 nM His6-CRBN/DDB1, 375 nM GST-BRD4/1× AlphaScreen buffer (5 μL) was added to each well of a 384-well Optiplate. Then, compound (5 μL) was added, with each concentration assayed in triplicate. As a positive control, 10 μL 100 nM GST-His6 was added to three wells. The plate was sealed with TopSeal A, centrifuged (200× g, 25° C., 1 min), and incubated at 25° C. for 1 h. Under low light, the seal was removed and 5 μL of 60 μg/mL AlphaScreen Glutathione Donor beads, 60 μg/mL AlphaLISA Nickel Chelate […] beads/1× AlphaScreen buffer was added to each well. The plate was sealed with TopSeal A, centrifuged (200× g, 25° C., 1 min), and incubated at 25° C. for 1 h. The seal was removed and the plate was analyzed. Prior to analysis, the plate reader was calibrated with a plate containing 15 μL of 20 μg/mL Omnibeads/1× AlphaScreen buffer in the corner wells. Analysis was performed in Graphpad Prism, using the vehicle-treated wells as the baseline, fitting the signal from each compound to a Gaussian curve, and calculating the area under the curve (AUC).

[7] = molecular target: T1, BRD4 with FLAG-CRBN; assay: In vivo FLAG-tag co-immunoprecipitation in HEK-CRBN cells; format: cell-based; conditions: 25 μM, 2 h, 1 μM MLN4924
Description: For in vivo FLAG-tag co-immunoprecipitation, 5.0×10^6 HEK-CRBN cells were seeded and incubated at 37° C., 5% CO2 for 30 min, and then were treated with 1 μM MLN4924 for 1 h. […] The cells were collected and lysed in 1× protease/phosphatase inhibitor/1× non-denaturing lysis buffer (500 μL) and clarified by centrifugation (21,000×g, 4° C., 10 min). The soluble portion of the lysate was collected and 200 μL of lysate was incubated with of protein G magnetic beads for 20 min (20 μL) to minimize the non-specific binding. […] The magnetic beads were washed with 1× non-denaturing lysis buffer (5×500 μL). Then, the enriched proteins were eluted by addition of 40 μL of 2× SDS-PAGE loading buffer and heated at 95 °C for 5 min prior to Western blot analysis.

[8] = molecular target: CRBN/DDB1 in the presence of BD1 domain of BRD4 (Homo sapiens, UniProt O60885+Q96SW2); assay: biochemical
[9] = molecular target: BRD4 (Homo sapiens, UniProt O60885)
[10] = test system: IKZF1; assay: Western blot of IKZF1 levels in MM.1S cells; format: cell-based; conditions: 10 μM
Description: As needed, a BCA assay was performed to determine the protein concentration of lysates and the concentration was adjusted using lysis buffer. 5× SDS-PAGE loading buffer (5% (v/v) β-mercaptoethanol, 0.02% (w/v) bromophenol blue, 30% (v/v) glycerol, 10% (w/v) SDS/250 mM Tris pH 6.8) was added to the protein samples to a final concentration of 1× and the samples were heated at 95° C. for 5 min. […] Gels were transferred to membranes using the Invitrogen iBlot 2 dry blotting system and iBlot 2 nitrocellulose transfer stacks, using program PO (1 min at 20 V, 4 min at 23 V, 2 min at 25 V) for most proteins and 8 min at 25 V for high molecular weight proteins. Membranes were stained with Ponceau S solution to visualize transfer and protein loading. […] Membranes were washed (3×5 min) with TBST and incubated with secondary antibodies at 24° C. for 1 h. Membranes were washed (3×5 min) with TBST and the results were obtained by chemiluminescence and/or IR imaging using Azure 600 or c600.

[11] = molecular target: CRL4^CRBN complex (Homo sapiens, UniProt Q96SW2); assay: In vitro ubiquitylation of C-terminally tagged proteins; format: biochemical; conditions: CRL4^CRBN complex isolated from HEK-CRBN cells, 30° C., 90 min
Description: 5.0×10^6 HEK-CRBN cells were collected per pellet, flash frozen with liquid nitrogen, and stored at −80° C. until use. Approximately 1 pellet per 1.5 samples was thawed on ice, and each pellet was resuspended in 1× protease inhibitor cocktail/Pierce IP lysis buffer (250 μL). Lysates were incubated on ice for 10 min, then were clarified by centrifugation (21,000×g, 4° C., 10 min). The soluble portions of the lysates were collected, with 1 mL lysate per tube, and 150 μL of TBS-washed anti-FLAG M2 beads were added. Samples were incubated at 4° C. on a roller for 1 h. Using a magnetic tube rack, the beads were collected and washed 3× with 1 mL TBS. Each sample was then eluted with by adding 100 μL of 100 ng/μL 3× FLAG peptide/TBS and incubating at 4° C. on a roller for 1 h. The eluent was collected. […] Ubiquitylation mastermixes were prepared at 2× with and without E1 and E2 enzymes. Final concentrations (1×) of the mastermix components were 0.2 μM UBE1, 2 μM UbcH5a, 1 mM UbcH5c, 400 μg/mL KO ubiquitin, 1 μM ubiquitin aldehyde, 1× Mg-ATP, 1× E3 ligase buffer, 10 μM MG132, 100 nM MG101. […] Reactions were incubated at 30° C. for 90 min then were stopped by the addition of 6.25 μL of 5× SDS-PAGE loading buffer. Samples were heated at 95° C. for 5 min prior to analysis by SDS-PAGE and Western blotting.

[12] = read-out: KD [ternary] (nM) | BD2
[13] = read-out: KD [ternary] (nM) | BD1

CC(C)(C)OC(=O)NC(Cc1ccccc1)C(=O)NC1CCC(=O)NC1=O (centres unmarked) [Boc-FcQ]
Papp (B-A) (10^-6, cm/s) [1]: 18.00 10^-6, cm/s | Recovery (%)BL-AP [1]: 91.46% | additional substrates degraded (global proteomics) [2]: no additional substrates were degraded | degradation of IKZF1 (global proteomics) [2]: not susceptible to degradation | IC50 [3]: > 100 µM

Cc1sc2c(c1C)C(c1ccc(Cl)cc1)=N[C@@H](CC(=O)NCCCCCCCCC(=O)N[C@@H](C)C(=O)N[C@H]1CCC(=O)NC1=O)c1nnc(C)n1-2 [JQ1-AcQ]
Kd [4, 12]: 76 nM

Cc1sc2c(c1C)C(c1ccc(Cl)cc1)=N[C@@H](CC(=O)NCCCCCCCCC(=O)N[C@@H](CC(=O)O)C(=O)N[C@H]1CCC(=O)NC1=O)c1nnc(C)n1-2 [JQ1-DcQ]
co-immunoprecipitation of BRD4 with FLAG-CRBN in lysates [5]: equivalent co-immunoprecipitation of BRD4 with FLAG-CRBN

Cc1sc2c(c1C)C(c1ccc(Cl)cc1)=N[C@@H](CC(=O)NCCCCCCCCC(=O)N[C@@H](CCC(=O)O)C(=O)N[C@H]1CCC(=O)NC1=O)c1nnc(C)n1-2 [JQ1-EcQ]
co-immunoprecipitation of BRD4 with FLAG-CRBN in lysates [5]: equivalent co-immunoprecipitation of BRD4 with FLAG-CRBN

Cc1sc2c(c1C)C(c1ccc(Cl)cc1)=N[C@@H](CC(=O)NCCCCCCCCC(=O)N[C@@H](Cc1ccccc1)C(=O)N[C@H]1CC(=O)NC1=O)c1nnc(C)n1-2 [JQ1-FcN]
ternary complex formation (AlphaScreen signal / relative area under the curve normalized to dBET6) [6]: stronger ternary complex than dBET6 | co-immunoprecipitation of BRD4 by FLAG-CRBN in cells [7]: readily co-immunoprecipitated

Cc1sc2c(c1C)C(c1ccc(Cl)cc1)=N[C@@H](CC(=O)NCCCCCCCCC(=O)N[C@@H](Cc1ccccc1)C(=O)N[C@H]1CCC(=O)NC1=O)c1nnc(C)n1-2 [JQ1-FcQ]
ternary complex formation (AlphaScreen signal / relative area under the curve normalized to dBET6) [6]: stronger ternary complex than dBET6 | co-immunoprecipitation of BRD4 by FLAG-CRBN in cells [7]: readily co-immunoprecipitated

Cc1sc2c(c1C)C(c1ccc(Cl)cc1)=N[C@@H](CC(=O)NCCCCCCCCC(=O)N1CCC[C@H]1C(=O)N[C@H]1CCC(=O)NC1=O)c1nnc(C)n1-2 [JQ1-PcQ]
Kd [8, 13]: 381 nM | Kd [4, 12]: 335 nM

Cc1sc2c(c1C)C(c1ccc(Cl)cc1)=N[C@@H](CC(=O)NCCCCCCCCC(=O)N[C@@H](Cc1ccc(O)cc1)C(=O)N[C@H]1CCC(=O)NC1=O)c1nnc(C)n1-2 [JQ1-YcQ]
Kd [8, 13]: 5 nM | Kd [4, 12]: 277 nM

Cc1sc2c(c1C)C(c1ccc(Cl)cc1)=N[C@@H](CC(=O)NCCCCCCCCC(=O)N[C@H]1CC(=O)NC1=O)c1nnc(C)n1-2 [JQ1-cN]
Kd [8]: 538 nM | Kd [4]: 390 nM

Cc1sc2c(c1C)C(c1ccc(Cl)cc1)=N[C@@H](CC(=O)NCCCCCCCCC(=O)N[C@H]1CCC(=O)NC1=O)c1nnc(C)n1-2 [JQ1-cQ]
degradation of BRD4 (functional degrader or not) [9]: inactive | ternary complex formation (AlphaScreen signal / relative area under the curve normalized to dBET6) [6]: ternary complex formation equivalent to the active JQ1-GcQ | Kd [8]: 245 nM | Kd [4]: 267 nM

Nc1cccc2c1CN(C1CCC(=O)NC1=O)C2=O (centres unmarked) [lenalidomide, Lenalidomide, reference compound]
IC50 [3]: 31.6 µM

Nc1cccc2c1CN(C1CCC(=O)NC1=O)C2=O (centres unmarked) [lenalidomide, Lenalidomide]
Papp (A-B) (10^-6, cm/s) [1]: 1.22 10^-6, cm/s | Papp (B-A) (10^-6, cm/s) [1]: 4.41 10^-6, cm/s

Nc1cccc2c1C(=O)N(C1CCC(=O)NC1=O)C2=O (centres unmarked) [pomalidomide, Pomalidomide, reference compound]
degradation of IKZF1 (global proteomics) [2]: selective degradation of the substrate IKZF1 | degradation of IKZF1 (Western blot) [10]: degraded

GFP-FN: "GFPs tagged with uncyclized glutamine and asparagine, GFP-FQ and GFP-FN" (TGGSLPETFN; not fully specified (N-terminus))
in vitro ubiquitylation of tagged GFP by CRL4^CRBN complex [11]: no modification

GFP-FQ: "GFPs tagged with uncyclized glutamine and asparagine, GFP-FQ and GFP-FN" (TGGSLPETFQ; not fully specified (N-terminus))
in vitro ubiquitylation of tagged GFP by CRL4^CRBN complex [11]: no modification
